Test: Solubility of polyphenols in water
Assay type: physicochemical
From the text: Methods of the disclosure can be used to design functional nanopatterns with tunable properties (e.g., mechanical properties that can be varied based on the strength of coordination between the metal ion and polyphenol). For example, the stability and mechanical properties of nanopatterns can be varied based on the strength of coordination between the metal ion and the polyphenol. […] The polymeric, multitopic structure of large polyphenols like TA can provide greater binding affinity to various substrates. These polyphenols also have other different characteristics, such as water solubility. […] This can broaden the range of ink concentrations that are suitable for tip-directed patterning.
Other inks based on different polyphenols (GA, ECG, and EGCG) were prepared according to similar protocols. […] However, ECG had limited solubility of <1 mg/mL in water. Therefore, 0.5 mg/mL was used for ECG-based inks. Unless otherwise noted, the concentration of polyphenol was 5 mg mL^−1 and the molar ratio of polyphenol to metal ion was 1:1. For GA-based inks, the molar ratio of GA to metal ion was 10:1. For the EGCG-Ni ink, the molar ratio of EGCG to Ni was 5:1. These molar ratios were determined after considering the solubility of each metal salt and the molecular weight of each polyphenol.

Row | solubility (in water) [µg/mL] | Compound | water solubility relative to GA, ECG, and EGCG (comparison in words)
1 | < 1000 | O=C(O[C@@H]1Cc2c(O)cc(O)cc2O[C@@H]1c1ccc(O)c(O)c1)c1cc(O)c(O)c(O)c1 [ECG, epicatechin gallate] | –
2 | – | O=C(OC[C@H]1O[C@@H](OC(=O)c2cc(O)c(O)c(OC(=O)c3cc(O)c(O)c(O)c3)c2)[C@H](OC(=O)c2cc(O)c(O)c(OC(=O)c3cc(O)c(O)c(O)c3)c2)[C@@H](OC(=O)c2cc(O)c(O)c(OC(=O)c3cc(O)c(O)c(O)c3)c2)[C@@H]1OC(=O)c1cc(O)c(O)c(OC(=O)c2cc(O)c(O)c(O)c2)c1)c1cc(O)c(O)c(OC(=O)c2cc(O)c(O)c(O)c2)c1 [TA, Tannic acid] | substantially higher solubility
